In patent US20190002436A1, “RESPIRATORY SYNCYTIAL VIRUS INHIBITORS” (MEDIVIR AB, priority 2015, published 2019):

System: RSV (Long)
Assay: RSV cytopathic effect (CPE)-based viral replication assay
Format: cell-based, respiratory syncytial virus (RSV)
Details: HEp-2 cells infected with RSV Long at MOI 0.015; 3 days at 37° C.; cell viability by CellTiter-Glo luminescence; read-out: EC50 (nm)
Description: Example A: RSV Cytopathic Effect
Compounds of the invention are initially tested in a cytopathic effect (CPE)-based viral replication assay using immortalized cells and a laboratory strain of RSV (Long). This assay evaluates the ability of a compound to inhibit viral replication.
Assay plates are prepared by seeding 2,500 HEp-2 cells (ATCC) per well of a 384-well black clear-bottom plate (Greiner Bio-One) in 20 μL of assay media (defined as DMEM supplemented with 2% heat-inactivated fetal bovine serum and 1% Penicillin/Streptomycin). Assay plates are incubated overnight at 37° C. in an incubator containing 5% CO2. The following day, a 10-point serial dilution of test compound is prepared in DMSO. Compounds are subsequently diluted with assay media and 20 μL of diluted compound (containing 1.5% DMSO) is transferred to an assay plate for evaluation of antiviral activity.
For the CPE assay, cells are infected at a Multiplicity of Infection (MOI) of 0.015 using 20 μL of RSV Long (ATCC) diluted in assay media. The DMSO concentration is constant throughout the assay plate, including the negative and positive controls. The assay plate is incubated for 3 days at 37° C. in an incubator containing 5% CO2. Cell viability is evaluated with the addition of 10 μL of CellTiter-Glo (ProMega). Luminescence is measured using an EnVision plate reader (Perkin Elmer). EC50 values are calculated using the raw data from the CPE assays.

Going from `O=C1CC(c2c(Cn3c(=O)n(C4CC4)c4ccncc43)ncc3ccccc23)CN1` (stereo not shown) [Example 2020] to `O=C1N(Cc2ncc3ccccc3c2-c2ccc(F)nc2)c2ccccc2C12CC(NCCF)C2` (single isomer, unassigned) [Example 87-2, 3-((2-fluoroethyl)amino)-1′-((4-(6-fluoropyridin-3-yl)isoquinolin-3-yl)methyl)spiro[cyclobutane-1,3′-indolin]-2′-one], the EC50 falls from 80 nM to 4.6 nM (17-fold).

Same assay, conditions: human respiratory syncytial virus, HEp-2, 72 h, HEp-2 cells infected with RSV Long at MOI 0.015; 3 days at 37° C.; cell viability by CellTiter-Glo luminescence; read-out: EC50 (nm)

Compared with `COC(=O)N1CC2(C1)C(=O)N(Cc1ncc3ccccc3c1-c1ccccn1)c1ccccc12` [Example 102, Methyl 2′-oxo-1′-((4-(pyridin-2-yl)isoquinolin-3-yl)methyl)spiro[azetidine-3,3′-indoline]-1-carboxylate], `COC(=O)N1CC2(C1)C(=O)N(Cc1ncc3ccccc3c1-c1ccncc1)c1ccccc12` [Example 97, Methyl 2′-oxo-1′-((4-(pyridin-4-yl)isoquinolin-3-yl)methyl)spiro[azetidine-3,3′-indoline]-1-carboxylate] is 430-fold lower in EC50: 194 nM for the first, 0.45 nM for the second. The second is the more potent here.

`CS(=O)(=O)N1CCC2(CC1)C(=O)N(Cc1ncc3ccccc3c1-c1ccc(C3(N)CC3)nc1)c1cnccc12` [Example 2026] and `CS(=O)(=O)N1CCC2(CC1)C(=O)N(Cc1ncc3ccccc3c1-c1ccc(C#N)nc1)c1cnccc12` [Example 66-1, 5-(3-((1-(Methylsulfonyl)-2′-oxospiro[piperidine-4,3′-pyrrolo[2,3-c]pyridin]-1′(2′H)-yl)methyl)isoquinolin-4-yl)picolinonitrile] are within 1.5-fold of each other in EC50: 2.2 nM for the first, 2.6 nM for the second.

`NC(=O)c1ccc(-c2c(CN3C(=O)C4(CCN(C(=O)[C@@H](N)CO)CC4)c4ccncc43)ncc3ccccc23)cn1` [Example 2032] and `CS(=O)(=O)N1CCC2(CC1)C(=O)N(Cc1ncc3ccccc3c1-c1ccc(C(N)C(F)(F)F)nc1)c1cnccc12` (stereo not shown) [Example 158c, 1′-((4-(6-(1-amino-2,2,2-trifluoroethyl)pyridin-3-yl)isoquinolin-3-yl)methyl)-1-(methylsulfonyl)spiro[piperidine-4,3′-pyrrolo[2,3-c]pyridin]-2′(1′H)-one] are within 1.5-fold of each other in EC50: 2.7 nM for the first, 3 nM for the second.

First: CS(=O)(=O)N1CCC2(CC1)C(=O)N(Cc1ncc3ccccc3c1-c1cncs1)c1cnccc12 [Example 98c]
Second: CS(=O)(=O)N1CCC2(CC1)C(=O)N(Cc1ncc3ccccc3c1-c1cnco1)c1cnccc12 [Example 159b, 1-(methylsulfonyl)-1′-((4-(oxazol-5-yl)isoquinolin-3-yl)methyl)spiro[piperidine-4,3′-pyrrolo[2,3-c]pyridin]-2′(1′H)-one]
The EC50 of the first is 4.1-fold lower: 1.9 nM for the first, 7.8 nM for the second.

First: O=c1n(Cc2ncc3cc(Cl)ccc3c2CCCCO)c2cnccc2n1C1CC1 [Example 19b, 3-((7-chloro-4-(4-hydroxybutyl)isoquinolin-3-yl)methyl)-1-cyclopropyl-1H-imidazo[4,5-c]pyridin-2(3H)-one]
Second: COC(=O)N1CCC(n2c(=O)n(Cc3ncc4cc(Cl)ccc4c3CCCCO)c3cnccc32)CC1 [Example 20, Methyl 4-(3-((7-chloro-4-(4-hydroxybutyl)isoquinolin-3-yl)methyl)-2-oxo-2,3-dihydro-1H-imidazo[4,5-c]pyridin-1-yl)piperidine-1-carboxylate]
The EC50 of the first is 13-fold higher: 110 nM for the first, 8.5 nM for the second. The second is the more potent here.

Compared with `CS(=O)(=O)N1CC2(C1)C(=O)N(Cc1ncc3ccccc3c1-c1cc(F)cc(F)c1)c1ccccc12` [Example 72], `COC(=O)N1CC2(C1)C(=O)N(Cc1ncc3ccccc3c1-c1ccc(NS(C)(=O)=O)cc1)c1ccccc12` [Example 105, methyl 1′-((4-(4-(methylsulfonamido)phenyl)isoquinolin-3-yl)methyl)-2′-oxospiro[azetidine-3,3′-indoline]-1-carboxylate] is 6.6-fold lower in EC50: 5.6 nM for the first, 0.85 nM for the second.

Going from `O=c1n(Cc2ncc3ccccc3c2CCCCO)c2ccccc2n1CC(F)(F)F` [Example 5c, 1-((4-(4-hydroxybutyl)isoquinolin-3-yl)methyl)-3-(2,2,2-trifluoroethyl)-1H-benzo[d]imidazol-2(3H)-one] to `O=c1n(Cc2ncc3ccccc3c2CCCC(F)(F)F)c2cnccc2n1C1CC1` [Example 8e, 1-cyclopropyl-3-((4-(4,4,4-trifluorobutyl)isoquinolin-3-yl)methyl)-1H-imidazo[4,5-c]pyridin-2(3H)-one], the EC50 falls from 19 nM to 9 nM (2.1-fold). The second is the more potent here.

Going from `CC1(S(=O)(=O)N2CCC3(CC2)C(=O)N(Cc2ncc4ccccc4c2CCCCO)c2cnccc23)CC1` [Example 54, 1′-((4-(4-hydroxybutyl)isoquinolin-3-yl)methyl)-1-((1-methylcyclopropyl)sulfonyl)spiro[piperidine-4,3′-pyrrolo[2,3-c]pyridin]-2′(1′H)-one] to `CS(=O)(=O)N1CCC2(CC1)C(=O)N(Cc1ncc3ccccc3c1-c1ccncc1)c1cnccc12` [Example 2014], the EC50 falls from 6 nM to 2.6 nM (2.3-fold). The second is the more potent here.

First: O=c1n(Cc2ncc3ccccc3c2CCCCO)c2cnccc2n1S(=O)(=O)C1CC1 [Example 22b, 1-(cyclopropylsulfonyl)-3-((4-(4-hydroxybutyl)isoquinolin-3-yl)methyl)-1H-imidazo[4,5-c]pyridin-2(3H)-one]
Second: NC(=O)N1CC2(C1)C(=O)N(Cc1ncc3ccccc3c1CCCCO)c1ccccc12 [Example 55, 1′-((4-(4-hydroxybutyl)isoquinolin-3-yl)methyl)-2′-oxospiro[azetidine-3,3′-indoline]-1-carboxamide]
The EC50 of the first is 3.3-fold higher: 15 nM for the first, 4.6 nM for the second.

First: NC1(C(=O)N2CCC3(CC2)C(=O)N(Cc2ncc4ccccc4c2-c2ccc(OC(F)(F)F)cc2)c2cnccc23)CC1 [Example 2036]
Second: NC1(C(=O)N2CCC3(CC2)C(=O)N(Cc2ncc4ccccc4c2-c2ccncc2)c2cnccc23)CC1 [Example 2016]
The EC50 of the first is 3.2-fold higher: 23 nM for the first, 7.1 nM for the second.

Compared with `NC1(C(=O)N2CC3(C2)C(=O)N(Cc2ncc4ccccc4c2-c2ccc(S(N)(=O)=O)cc2)c2ccccc23)CC1` [Example 125, 4-(3-((1-(1-aminocyclopropanecarbonyl)-2′-oxospiro[azetidine-3,3′-indolin]-1′-yl)methyl)isoquinolin-4-yl)benzenesulfonamide], `N#Cc1ccc(-c2c(CN3C(=O)C4(CN(C(=O)OCCO)C4)c4ccccc43)ncc3ccccc23)cn1` [Example 64, 2-Hydroxyethyl 1′-((4-(6-cyanopyridin-3-yl)isoquinolin-3-yl)methyl)-2′-oxospiro[azetidine-3,3′-indoline]-1-carboxylate] is 3.8-fold lower in EC50: 6 nM for the first, 1.6 nM for the second.

Compared with `O=C1N(Cc2ncc3ccccc3c2-c2cccnc2)c2cnccc2C12CCN(S(=O)(=O)CC(F)(F)F)CC2` [Example 139, 1′-((4-(pyridin-3-yl)isoquinolin-3-yl)methyl)-1-((2,2,2-trifluoroethyl)sulfonyl)spiro[piperidine-4,3′-pyrrolo[2,3-c]pyridin]-2′(1′H)-one], `CS(=O)(=O)N1CCC2(CC1)C(=O)N(Cc1ncc3cc(F)ccc3c1-c1ccncc1)c1cnccc12` [Example 2035] is 2.6-fold lower in EC50: 7.2 nM for the first, 2.8 nM for the second. The second is the more potent here.

`COC(=O)N1CC2(C1)C(=O)N(Cc1ncc3ccccc3c1-c1ccc(NS(C)(=O)=O)nc1)c1cnccc12` [Example 167d, methyl 1′-((4-(6-(methylsulfonamido)pyridin-3-yl)isoquinolin-3-yl)methyl)-2′-oxo-1′,2′-dihydrospiro[azetidine-3,3′-pyrrolo[2,3-c]pyridine]-1-carboxylate] showed an EC50 of 4.8 nM.

Same assay, conditions: human respiratory syncytial virus, HEp-2, 72 h, read-out: EC50 (nm)

`CNC(=O)OC1CC2(C1)C(=O)N(Cc1ncc3ccccc3c1-c1ccc(C#N)nc1)c1ccccc12` (stereo not shown) [Example 89, 1′-((4-(6-Cyanopyridin-3-yl)isoquinolin-3-yl)methyl)-2′-oxospiro[cyclobutane-1,3′-indolin]-3-yl methylcarbamate] showed an EC50 of 5.8 nM.
